Experimental data taken from ChEMBL document CHEMBL4411283, “The p53 stabilizing agent CP-31398 and multi-kinase inhibitors. Designing, synthesizing and screening of styrylquinazoline series” (Eur J Med Chem, 2019).

Columns and labels:
HCT-116 [1] = test: cells; settings: Homo sapiens, HCT-116, 72 h
Description: Antiproliferative activity against p53+/+ human HCT116 cells after 72 hrs by CellTiter 96 aqueous one solution assay

MCF7 = test: cells; settings: Homo sapiens, MCF7, 72 h
Description: Antiproliferative activity against human MCF7 cells after 72 hrs by CellTiter 96 aqueous one solution assay

[2] = molecular target: T1, Tyrosine-protein kinase Fyn (Homo sapiens, UniProt P06241); test: Inhibition of Fyn A (unknown origin) at 0.5 uM preincubated for 10 mins followed by substrate addition and measured after 1 hr by ADP-Glo luminescence assay relative to control
Target sequence in this assay (P06241 2-537 limits assumed): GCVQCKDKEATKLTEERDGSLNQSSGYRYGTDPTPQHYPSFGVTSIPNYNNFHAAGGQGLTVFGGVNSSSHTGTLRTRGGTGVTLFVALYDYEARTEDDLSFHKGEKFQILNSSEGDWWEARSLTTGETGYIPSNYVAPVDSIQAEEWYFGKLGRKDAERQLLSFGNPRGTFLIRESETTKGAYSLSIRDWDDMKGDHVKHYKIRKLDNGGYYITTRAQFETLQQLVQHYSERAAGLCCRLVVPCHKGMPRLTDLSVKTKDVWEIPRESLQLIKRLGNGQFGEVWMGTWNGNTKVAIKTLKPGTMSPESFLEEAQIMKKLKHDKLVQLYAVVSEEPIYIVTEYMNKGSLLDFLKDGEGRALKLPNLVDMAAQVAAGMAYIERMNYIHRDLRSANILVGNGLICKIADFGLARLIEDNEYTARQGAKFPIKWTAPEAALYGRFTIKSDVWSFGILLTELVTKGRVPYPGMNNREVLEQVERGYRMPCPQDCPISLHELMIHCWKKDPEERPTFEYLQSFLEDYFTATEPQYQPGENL

A549 = test: cells; settings: Homo sapiens, A549, 72 h
Description: Antiproliferative activity against human A549 cells after 72 hrs by CellTiter 96 aqueous one solution assay

NHDF = test: cells; settings: Homo sapiens, 72 h
Description: Antiproliferative activity against human NHDF cells after 72 hrs by CellTiter 96 aqueous one solution assay

HCT-116 [3] = test: cells; settings: Homo sapiens, HCT-116, 72 h; remark: listed apart in the source
Description: Antiproliferative activity against p53-/- human HCT116 cells after 72 hrs by CellTiter 96 aqueous one solution assay

[4] = molecular target: T1, Tyrosine-protein kinase Fyn; test: Inhibition of Fyn A (unknown origin) preincubated for 10 mins followed by substrate addition and measured after 1 hr by ADP-Glo luminescence assay
Target sequence in this assay (P06241 whole entry): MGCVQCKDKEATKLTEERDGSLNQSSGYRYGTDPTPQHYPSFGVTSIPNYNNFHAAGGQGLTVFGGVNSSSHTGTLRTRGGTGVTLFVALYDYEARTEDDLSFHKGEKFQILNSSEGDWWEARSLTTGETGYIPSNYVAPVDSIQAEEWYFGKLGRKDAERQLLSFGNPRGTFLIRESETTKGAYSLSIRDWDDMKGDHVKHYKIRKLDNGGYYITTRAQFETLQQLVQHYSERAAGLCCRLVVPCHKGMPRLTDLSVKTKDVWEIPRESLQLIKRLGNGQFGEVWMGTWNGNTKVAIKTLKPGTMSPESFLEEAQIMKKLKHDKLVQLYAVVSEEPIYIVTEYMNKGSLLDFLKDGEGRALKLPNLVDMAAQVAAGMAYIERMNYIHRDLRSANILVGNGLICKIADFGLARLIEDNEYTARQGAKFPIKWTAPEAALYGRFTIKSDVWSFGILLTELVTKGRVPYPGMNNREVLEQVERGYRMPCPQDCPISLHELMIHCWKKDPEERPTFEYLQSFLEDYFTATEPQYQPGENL

[5] = molecular target: T2, Tyrosine-protein kinase BTK (Homo sapiens, UniProt Q06187); test: Inhibition of BTK (unknown origin) preincubated for 10 mins followed by substrate addition and measured after 1 hr by ADP-Glo luminescence assay
[6] = molecular target: T3, Receptor tyrosine-protein kinase erbB-4 (Homo sapiens, UniProt Q15303); test: Inhibition of human wild type ERBB4 (L690 to K994 residues) expressed in bacterial expression system at 5 uM relative to control
[7] = molecular target: T2, Tyrosine-protein kinase BTK; test: Inhibition of human BTK using KVEKIGEGTYGVVYK as substrate by [gamma-33P]-ATP assay
[8] = molecular target: Calcium/calmodulin-dependent protein kinase type 1G (Homo sapiens, UniProt Q96NX5); test: Inhibition of human CAMK1G using KKALRRQETVDAL as substrate by [gamma-33P]-ATP assay
[9] = molecular target: T4, Tyrosine-protein kinase Lyn (Homo sapiens, UniProt P07948); test: Inhibition of human LYN at 20 uM using poly[Glu:Tyr] (4:1) as substrate by [gamma-33P]-ATP assay relative to control
[10] = molecular target: T3, Receptor tyrosine-protein kinase erbB-4; test: Inhibition of human ERBB4 using poly[Glu:Tyr] (4:1) as substrate by [gamma-33P]-ATP assay
[11] = molecular target: Tyrosine-protein kinase CSK (Homo sapiens, UniProt P41240); test: Inhibition of human CSK using poly[Glu:Tyr] (4:1) as substrate by [gamma-33P]-ATP assay
[12] = molecular target: Tyrosine-protein kinase Lck (Homo sapiens) (UniProt P06239); test: Inhibition of human LCK at 20 uM using poly[Glu:Tyr] (4:1) as substrate by [gamma-33P]-ATP assay relative to control
[13] = molecular target: T4, Tyrosine-protein kinase Lyn; test: Inhibition of human LYN-B using poly[Glu:Tyr] (4:1) as substrate by [gamma-33P]-ATP assay
[14] = molecular target: Tyrosine-protein kinase ABL1 (Homo sapiens) (UniProt P00519); test: Inhibition of human ABL1 at 20 uM using EAIYAAPFAKKK as substrate by [gamma-33P]-ATP assay relative to control
[15] = molecular target: T1, Tyrosine-protein kinase Fyn; test: Inhibition of human FYN at 20 uM using poly[Glu:Tyr] (4:1) as substrate by [gamma-33P]-ATP assay relative to control
Target sequence in this assay (P06241 2-537 limits assumed): as the sequence (P06241 2-537 limits assumed) above

Nociceptin receptor = Nociceptin receptor (Homo sapiens, UniProt P41146); test: Displacement of [3H]-nociceptin from human nociceptin receptor expressed in cell membranes after 60 mins by liquid scintillation counting analysis
[16] = molecular target: Tyrosine-protein kinase ABL1 (Homo sapiens) (UniProt P00519); settings: at 0.5 µM
Description: Inhibition of ABL1 (unknown origin) at 0.5 uM preincubated for 10 mins followed by substrate addition and measured after 1 hr by ADP-Glo luminescence assay relative to control

T2 sequence (Q06187 whole entry, the tested form may be a part): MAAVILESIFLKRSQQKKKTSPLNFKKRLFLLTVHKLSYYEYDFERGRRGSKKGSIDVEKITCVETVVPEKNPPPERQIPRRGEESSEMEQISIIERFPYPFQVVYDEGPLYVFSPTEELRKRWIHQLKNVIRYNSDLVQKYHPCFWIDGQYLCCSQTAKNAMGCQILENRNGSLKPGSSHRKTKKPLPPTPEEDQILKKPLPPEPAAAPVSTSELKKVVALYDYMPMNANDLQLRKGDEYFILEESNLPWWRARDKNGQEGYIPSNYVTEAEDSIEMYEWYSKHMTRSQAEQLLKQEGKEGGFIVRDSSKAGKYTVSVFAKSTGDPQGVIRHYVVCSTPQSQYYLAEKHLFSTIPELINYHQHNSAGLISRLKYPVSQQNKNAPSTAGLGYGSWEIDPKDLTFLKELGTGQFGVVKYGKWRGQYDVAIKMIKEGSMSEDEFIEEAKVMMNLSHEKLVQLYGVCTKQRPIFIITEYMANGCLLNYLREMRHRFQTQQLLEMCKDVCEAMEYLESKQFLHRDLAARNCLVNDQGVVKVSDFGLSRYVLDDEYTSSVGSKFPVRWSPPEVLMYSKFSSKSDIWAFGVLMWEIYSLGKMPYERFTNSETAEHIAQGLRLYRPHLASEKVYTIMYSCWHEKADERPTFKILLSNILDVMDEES
Tyrosine-protein kinase ABL1 (Homo sapiens), sequence (P00519 whole entry): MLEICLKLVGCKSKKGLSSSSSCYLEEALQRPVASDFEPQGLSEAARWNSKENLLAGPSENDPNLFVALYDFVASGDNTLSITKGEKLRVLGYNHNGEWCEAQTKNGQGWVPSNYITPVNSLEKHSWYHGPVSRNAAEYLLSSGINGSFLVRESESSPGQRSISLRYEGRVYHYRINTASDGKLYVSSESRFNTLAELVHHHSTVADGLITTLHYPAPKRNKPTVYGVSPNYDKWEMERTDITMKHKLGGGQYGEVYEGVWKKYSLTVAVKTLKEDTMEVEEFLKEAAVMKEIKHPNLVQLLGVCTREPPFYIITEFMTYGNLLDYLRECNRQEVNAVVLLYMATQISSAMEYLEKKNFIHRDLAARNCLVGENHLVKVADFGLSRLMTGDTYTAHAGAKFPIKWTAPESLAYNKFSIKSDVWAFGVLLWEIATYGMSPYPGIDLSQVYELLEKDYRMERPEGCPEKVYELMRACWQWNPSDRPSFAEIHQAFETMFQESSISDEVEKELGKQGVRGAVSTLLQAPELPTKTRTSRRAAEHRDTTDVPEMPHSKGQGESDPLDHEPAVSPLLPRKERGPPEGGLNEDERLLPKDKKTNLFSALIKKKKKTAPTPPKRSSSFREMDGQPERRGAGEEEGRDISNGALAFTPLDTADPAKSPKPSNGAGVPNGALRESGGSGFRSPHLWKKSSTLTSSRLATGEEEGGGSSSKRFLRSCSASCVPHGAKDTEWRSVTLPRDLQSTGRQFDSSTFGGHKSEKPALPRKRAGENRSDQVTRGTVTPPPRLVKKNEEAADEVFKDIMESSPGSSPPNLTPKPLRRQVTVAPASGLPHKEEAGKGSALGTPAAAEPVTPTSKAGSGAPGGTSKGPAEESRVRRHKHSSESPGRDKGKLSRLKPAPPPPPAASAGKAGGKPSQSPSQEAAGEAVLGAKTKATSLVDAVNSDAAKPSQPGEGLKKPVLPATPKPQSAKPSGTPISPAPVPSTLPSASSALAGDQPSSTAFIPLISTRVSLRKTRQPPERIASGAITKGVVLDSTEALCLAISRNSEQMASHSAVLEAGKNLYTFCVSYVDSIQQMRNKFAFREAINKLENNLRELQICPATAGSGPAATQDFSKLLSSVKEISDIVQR
T3 sequence (Q15303 whole entry, the tested form may be a part): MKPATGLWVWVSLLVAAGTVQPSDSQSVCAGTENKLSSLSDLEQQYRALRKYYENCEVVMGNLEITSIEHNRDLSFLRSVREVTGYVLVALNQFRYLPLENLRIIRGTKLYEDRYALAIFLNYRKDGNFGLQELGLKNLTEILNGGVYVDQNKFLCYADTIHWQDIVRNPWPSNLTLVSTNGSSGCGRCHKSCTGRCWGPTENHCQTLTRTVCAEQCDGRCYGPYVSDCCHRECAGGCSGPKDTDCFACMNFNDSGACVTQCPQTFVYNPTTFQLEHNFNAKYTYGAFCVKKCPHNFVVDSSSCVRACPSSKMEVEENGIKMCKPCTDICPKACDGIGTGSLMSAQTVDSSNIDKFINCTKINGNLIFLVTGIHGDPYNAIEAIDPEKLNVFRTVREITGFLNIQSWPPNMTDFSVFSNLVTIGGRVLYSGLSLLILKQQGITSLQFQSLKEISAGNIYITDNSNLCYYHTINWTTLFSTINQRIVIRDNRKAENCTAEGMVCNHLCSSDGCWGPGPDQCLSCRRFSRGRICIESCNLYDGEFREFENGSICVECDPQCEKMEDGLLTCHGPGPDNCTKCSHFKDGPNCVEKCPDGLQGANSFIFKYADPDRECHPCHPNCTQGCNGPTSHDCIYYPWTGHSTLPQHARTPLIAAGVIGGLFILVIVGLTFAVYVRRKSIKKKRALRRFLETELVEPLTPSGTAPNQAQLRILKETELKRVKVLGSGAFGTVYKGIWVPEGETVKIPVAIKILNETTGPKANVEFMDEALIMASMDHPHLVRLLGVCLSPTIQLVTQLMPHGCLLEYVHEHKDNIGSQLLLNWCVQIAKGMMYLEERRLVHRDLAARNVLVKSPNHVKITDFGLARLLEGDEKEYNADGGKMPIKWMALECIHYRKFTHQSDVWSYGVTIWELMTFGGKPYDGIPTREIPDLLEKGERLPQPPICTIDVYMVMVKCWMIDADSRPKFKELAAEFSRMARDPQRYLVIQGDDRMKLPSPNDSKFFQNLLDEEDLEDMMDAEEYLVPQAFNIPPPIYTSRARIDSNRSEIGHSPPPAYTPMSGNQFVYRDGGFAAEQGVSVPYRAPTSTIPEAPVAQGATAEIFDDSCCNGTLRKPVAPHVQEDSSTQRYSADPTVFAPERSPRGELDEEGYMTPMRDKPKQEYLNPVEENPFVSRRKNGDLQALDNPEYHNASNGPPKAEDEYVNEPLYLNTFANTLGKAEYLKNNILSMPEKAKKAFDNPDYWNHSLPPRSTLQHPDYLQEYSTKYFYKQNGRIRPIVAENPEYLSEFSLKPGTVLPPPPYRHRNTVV
Tyrosine-protein kinase Lck (Homo sapiens), sequence (P06239 2-509 limits assumed): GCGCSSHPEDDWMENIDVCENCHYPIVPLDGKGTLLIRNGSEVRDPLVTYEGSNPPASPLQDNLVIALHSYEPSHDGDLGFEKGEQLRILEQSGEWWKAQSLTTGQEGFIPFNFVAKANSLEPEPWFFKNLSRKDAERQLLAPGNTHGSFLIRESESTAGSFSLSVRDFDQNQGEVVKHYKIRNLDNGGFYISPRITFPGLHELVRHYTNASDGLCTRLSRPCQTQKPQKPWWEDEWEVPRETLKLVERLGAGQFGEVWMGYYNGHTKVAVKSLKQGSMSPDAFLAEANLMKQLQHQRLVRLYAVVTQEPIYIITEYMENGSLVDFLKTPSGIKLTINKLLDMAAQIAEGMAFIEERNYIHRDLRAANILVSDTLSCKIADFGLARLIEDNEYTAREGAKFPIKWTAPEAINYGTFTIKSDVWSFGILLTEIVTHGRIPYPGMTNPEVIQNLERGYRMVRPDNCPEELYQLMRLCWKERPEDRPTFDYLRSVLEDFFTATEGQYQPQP

Compound	IC50 (HCT-116 [1]) [µM]	IC50 (MCF7) [µM]	inhibition [2] [%]	IC50 (A549) [µM]	IC50 (NHDF) [µM]	IC50 (HCT-116 [3]) [µM]	other results
COc1ccc(/C=C/c2nc(NCCCN(C)C)c3ccccc3n2)cc1	–	27	31	> 25	–	–	–
COc1cccc(/C=C/c2nc3ccccc3c(=O)[nH]2)c1	> 25	–	0	–	–	> 25	–
CNC(=O)c1ccccc1Sc1ccc2c(/C=C/c3ccccn3)n[nH]c2c1	–	–	44	–	–	–	–
CCN(CC)CCCNc1nc(/C=C/c2ccc(OC)cc2)nc2ccc(Br)cc12	–	–	–	–	–	–	inhibition [6]: 0%
COc1ccc(/C=C/c2nc3ccccc3c(=O)[nH]2)cc1	> 25	> 25	2	> 25	–	> 25	–
CCN(CC)CCCC(C)Nc1nc(/C=C/c2cc(OC)c(OC)cc2Cl)nc2cc(Cl)ccc12 (centres undefined)	–	–	–	–	–	–	IC50 [7]: 5.15 µM; IC50 [8]: 4.81 µM; inhibition [9]: 50%; IC50 [10]: 7.74 µM; IC50 [11]: 6.85 µM; inhibition [12]: 80%; IC50 [13]: > 100 µM; inhibition [14]: 0%; inhibition [15]: 70%
O=c1[nH]c(/C=C/c2ccc3c(c2)OCO3)nc2ccccc12	> 25	–	4	–	–	> 25	–
CC(=O)Oc1ccc(/C=C/c2nc3ccccc3c(=O)[nH]2)c(OC(C)=O)c1	> 25	> 25	19	> 25	> 25	23	–
CCOc1ccc(/C=C/c2nc3ccccc3c(=O)[nH]2)cc1	> 25	–	0	–	–	> 25	–
Cc1ccc2nc(/C=C/c3ccccn3)nc(N[C@H]3CC[C@@H](N)C[C@H]3C)c2c1	–	–	–	–	–	–	Ki (Nociceptin receptor): 0.002 µM
O=c1[nH]c(/C=C/c2cccc([N+](=O)[O-])c2)nc2ccccc12	> 25	–	0	–	–	> 25	–
COc1ccccc1/C=C/c1nc(Nc2ccccc2Cl)c2ccccc2n1	> 25	18.9	0	> 25	> 25	16.1	–
COc1ccccc1/C=C/c1nc(Nc2ccc(O)cc2)c2ccccc2n1	> 25	8.29	0	13	13.8	17.9	–
CC(=O)Oc1ccccc1/C=C/c1nc(Nc2ccccc2I)c2ccccc2n1	> 25	15.6	24	16.4	23.2	> 25	–
Cc1ccc(NC(=O)c2ccc(CN3CCN(C)CC3)cc2)cc1Nc1nccc(-c2cccnc2)n1 [IMATINIB]	–	> 25	0	> 25	> 25	–	–
O=c1[nH]c(/C=C/c2cc3c(cc2Br)OCO3)nc2ccccc12	> 25	> 25	0	> 25	–	> 25	–
CCCCOc1ccc(/C=C/c2nc3ccccc3c(=O)[nH]2)cc1	> 25	> 25	0	> 25	–	> 25	–
COc1ccc(Cl)c(Nc2ncnc3cc(OCC4CCN(C)CC4)c(OC)cc23)c1 [AZM-475271]	> 25	> 25	76	> 25	> 25	> 25	inhibition [16]: 8%
Oc1cccc(Nc2nc(/C=C/c3cccc(Cl)c3)nc3ccccc23)c1	> 25	–	0	–	–	> 25	–
O=c1[nH]c(/C=C/c2c(Br)ccc3c2OCO3)nc2ccccc12	> 25	12.8	61	13.8	14.8	> 25	–
O=c1[nH]c(/C=C/c2cccc3c2OCO3)nc2ccccc12	> 25	–	40	–	–	> 25	–

Further lines, with some results ahead:

IC50 (HCT-116 [1]) [µM]	IC50 (MCF7) [µM]	inhibition [2] [%]	IC50 (A549) [µM]	IC50 (NHDF) [µM]	IC50 (HCT-116 [3]) [µM]	Compound	other results
> 25	> 25	0	> 25	> 25	17.2	CC(=O)Oc1ccccc1/C=C/c1nc2ccccc2c(=O)[nH]1	–
> 25	–	29	–	–	> 25	O=c1[nH]c(/C=C/c2ccc([N+](=O)[O-])cc2)nc2ccccc12	–
3.58	1.11	92	23.7	0.71	–	Cc1nc(Nc2ncc(C(=O)Nc3c(C)cccc3Cl)s2)cc(N2CCN(CCO)CC2)n1 [DASATINIB]	–
> 25	7.84	63	> 25	> 25	> 25	COc1ccc(OC)c(Nc2nc(/C=C/c3ccccc3OC(C)=O)nc3ccccc23)c1	–
15.9	4.86	90	9.88	7.72	13.7	COc1ccccc1/C=C/c1nc(Nc2ccc3c(c2)OCO3)c2ccccc2n1	IC50 [4]: 0.191 µM; IC50 [5]: 0.237 µM
23.3	6.26	0	21.8	> 25	6.43	CCOc1ccccc1/C=C/c1nc2ccccc2c(=O)[nH]1	–
4.38	4.38	0	7.41	4.59	5.03	Oc1cccc(Nc2nc(/C=C/c3cc4c(cc3Br)OCO4)nc3ccccc23)c1	IC50 [5]: 0.287 µM
10.8	10.8	1	11.6	14.4	13.3	COc1ccccc1/C=C/c1nc(NCc2ccc3c(c2)OCO3)c2ccccc2n1	–
22.9	14.7	0	20.8	> 25	22.9	COc1ccc(/C=C/c2nc(Nc3cccc(O)c3)c3ccccc3n2)cc1	–
21.7	11.2	0	16.6	17.5	16.4	COc1ccccc1/C=C/c1nc(Nc2cccc(O)c2)c2ccccc2n1	–
21.9	9.19	0	14.8	14.2	22.7	Oc1ccc(Nc2nc(/C=C/c3cccc(Cl)c3)nc3ccccc23)cc1	–
10.9	10.1	0	15.4	11.2	10.8	O=[N+]([O-])c1cccc(/C=C/c2nc(Nc3cccc(O)c3)c3ccccc3n2)c1	IC50 [5]: 0.88 µM
15.3	6.37	0	> 25	> 25	9.29	CC(=O)Oc1cccc(/C=C/c2nc3ccccc3c(=O)[nH]2)c1	–
2.47	4.45	0	> 25	> 25	1.46	COc1ccccc1/C=C/c1nc2ccccc2c(=O)[nH]1	IC50 [5]: 0.456 µM
